Results published in patent US7745636B2, “Hepatitis C virus inhibitors” (Bristol-Myers Squibb Company, priority 2006, dated 2010).

tested on: HCV 1b-377-neo replicon cells; test: HCV Replicon assay, HCV 1b-377-neo replicon cells; type: cell-based, HCV 1b genotype; details: Hepatitis C virus, Table 2, read-out: Range (EC50 against HCV 1b)
Protocol: An HCV Replicon assay was utilized in the present disclosure, and was prepared, conducted and validated as described in commonly owned PCT/US2006/022197 and in O'Boyle et. al. Antimicrob Agents Chemother. 2005 April; 49(4):1346-53.
HCV 1b-377-neo replicon cells were used to test the currently described compound series as well as cells resistant to compound A due to a Y2065H mutation in NS5A (described in application PCT/US2006/022197). The compounds tested were determined to have more than 10-fold less inhibitory activity on cells resistant to compound A than wild-type cells indicating a related mechanism of action between the two compound series. Thus, the compounds of the present disclosure can be effective to inhibit the function of the HCV NS5A protein and are understood to be as effective in combinations as previously described in application PCT/US2006/022197 and commonly owned WO/O4014852. Further, the compounds of the present disclosure can be effective against the HCV 1b genotype. It should also be understood that the compounds of the present disclosure can inhibit multiple genotypes of HCV. […] In one embodiment compounds of the present disclosure are active against the 1a, 1b, 2a, 2b, 3a, 4a, and 5a genotypes.

Row | Structure (SMILES) | EC50 [nM]
1 | CN(C)[C@@H](C(=O)N1CCC[C@H]1c1ncc(-c2ccc(-c3ccc(-c4cnc([C@@H]5CCCN5C(=O)[C@@H](c5ccccc5)N(C)C)[nH]4)nn3)cc2)[nH]1)c1ccccc1 [Example 152j-9, (1R)-2-((2S)-2-(5-(6-(4-(2-((2S)-1-((2R)-2-(dimethylamino)-2-phenylacetyl)-2-pyrrolidinyl)-1H-imidazol-5-yl)phenyl)-3-pyridazinyl)-1H-imidazol-2-yl)-1-pyrrolidinyl)-N,N-dimethyl-2-oxo-1-phenylethanamine] | 1 to 99
2 | COC(=O)N[C@@H](C(=O)N1CCC[C@H]1c1ncc(-c2ccc(-c3ccc(-c4cnc([C@@H]5CCCN5C(=O)[C@H](NC(=O)OC)c5ccccc5)[nH]4)cn3)nc2)[nH]1)c1ccccc1 [Example 145, dimethyl(2,2′-bipyridine-5,5′-diylbis(1H-imidazole-5,2-diyl(2S)-2,1-pyrrolidinediyl((1R)-2-oxo-1-phenyl-2,1-ethanediyl)))biscarbamate] | 0.001 to 0.999
3 | CN(C)[C@@H](C(=O)N1CCC[C@H]1c1ncc(-c2ccc(-c3ccc(-c4cnc([C@@H]5CCCN5C(=O)[C@@H](c5ccccc5)N(C)C)[nH]4)cc3C(F)(F)F)cc2)[nH]1)c1ccccc1 [Example 130, (1R,1′R)-2,2′-((2-(trifluoromethyl)-4,4′-biphenyldiyl)bis(1H-imidazole-5,2-diyl(2S)-2,1-pyrrolidinediyl))bis(N,N-dimethyl-2-oxo-1-phenylethanamine)] | 0.001 to 0.999
4 | COC(=O)N[C@@H](C(=O)N1CCC[C@H]1c1ncc(-c2ccc(-c3ccc(-c4cnc([C@@H]5CCCN5C(=O)Cc5ccccc5)[nH]4)cc3)cc2)[nH]1)c1ccccc1 [Example 28, methyl((1R)-2-oxo-1-phenyl-2-((2S)-2-(5-(4′-(2-((2S)-1-(phenylacetyl)-2-pyrrolidinyl)-1H-imidazol-5-yl)-4-biphenylyl)-1H-imidazol-2-yl)-1-pyrrolidinyl)ethyl)carbamate] | 1 to 99
5 | CN(C)[C@@H](C(=O)N1CCC[C@H]1c1ncc(-c2ccc(-c3ccc(-c4cnc([C@@H]5CCCN5C(=O)[C@@H](c5ccccc5)N(C)C)[nH]4)cc3)cc2)[nH]1)c1ccccc1 [Example 1, (1R,1′R)-2,2′-(4,4′-biphenyldiylbis(1H-imidazole-5,2-diyl(2S)-2,1-pyrrolidinediyl))bis(N,N-dimethyl-2-oxo-1-phenylethanamine)] | 0.001 to 0.999
6 | CC(=O)N[C@@H](C(=O)N1CCC[C@H]1c1ncc(-c2ccc(-c3ccc(-c4cnc([C@@H]5CCCN5C(=O)[C@H](NC(C)=O)c5ccccc5)[nH]4)cn3)cc2)[nH]1)c1ccccc1 [Example 139, N-((1R)-2-((2S)-2-(5-(6-(4-(2-((2S)-1-((2R)-2-acetamido-2-phenylacetyl)-2-pyrrolidinyl)-1H-imidazol-5-yl)phenyl)-3-pyridinyl)-1H-imidazol-2-yl)-1-pyrrolidinyl)-2-oxo-1-phenylethyl)acetamide] | 0.001 to 0.999
7 | COC(=O)N[C@@H](C(=O)N[C@@H](C)c1ncc(-c2ccc(-c3ncc(-c4cnc([C@@H]5CCCN5C(=O)[C@@H](c5ccccc5)N5CCCCC5)[nH]4)cn3)cc2)[nH]1)c1ccccc1 [Example 152l-2, methyl ((1R)-2-oxo-1-phenyl-2-(((1S)-1-(4-(4-(5-(2-((2S)-1-((2R)-2-phenyl-2-(1-piperidinyl)acetyl)-2-pyrrolidinyl)-1H-imidazol-5-yl)-2-pyrimidinyl)phenyl)-1H-imidazol-2-yl)ethyl)amino)ethyl) carbamate] | 0.001 to 0.999
8 | COC(=O)N[C@@H](C)C(=O)N1CCC[C@H]1c1nc(-c2cnc(-c3ccc(-c4cnc([C@@H]5CCCN5C(=O)[C@H](C)NC(=O)OC)[nH]4)cc3)nc2)c[nH]1 [Example D73, methyl ((1S)-2-((2S)-2-(5-(4-(5-(2-((2S)-1-(N-(methoxycarbonyl)-L-alanyl)-2-pyrrolidinyl)-1H-imidazol-5-yl)-2-pyrimi-dinyl)phenyl)-1H-imidazol-2-yl)-1-pyrrolidinyl)-1-methyl-2-oxoethyl)carbamate] | 0.001 to 0.999
9 | C[C@@H](c1ncc(-c2ccc(-c3ncc(-c4cnc([C@@H]5CCCN5C(=O)[C@@H](c5ccccc5)N5CCCCC5)[nH]4)cn3)cc2)[nH]1)N(C)C(=O)[C@@H](c1ccccc1)N1CCCCC1 [Example 152j-6, (2R)-N-methyl-2-phenyl-N-((1S)-1-(4-(4-(5-(2-((2S)-1-((2R)-2-phenyl-2-(1-piperidinyl)acetyl)-2-pyrrolidinyl)-1H-imidazol-5-yl)-2-pyrimidinyl)phenyl)-1H-imidazol-2-yl)ethyl)-2-(1-piperidinyl)acetamide] | 0.001 to 0.999
10 | COC(=O)N[C@@H](C(=O)N1CCC[C@H]1c1ncc(-c2ccc(-c3ccc(-c4cnc([C@@H]5CCCN5C(=O)[C@H](NC(=O)OC)c5ccccc5)[nH]4)nn3)cc2)[nH]1)c1ccccc1 [Example 152j-10, methyl ((1R)-2-((2S)-2-(5-(6-(4-(2-((2S)-1-((2R)-2-((methoxycarbonyl)amino)-2-phenylacetyl)-2-pyrrolidinyl)-1H-imidazol-5-yl)phenyl)-3-pyridazinyl)-1H-imidazol-2-yl)-1-pyrrolidinyl)-2-oxo-1-phenylethyl)carbamate] | 1 to 99
11 | COC(=O)N[C@@H](C(=O)N1CCC[C@H]1c1ncc(-c2ccc(-c3ncc(-c4cnc([C@@H]5CCCN5C(=O)[C@H](NC(=O)OC)c5ccccc5)[nH]4)cn3)cc2)[nH]1)c1ccccc1 [Example 152j-2, methyl ((1R)-2-((2S)-2-(5-(2-(4-(2-((2S)-1-((2R)-2-((methoxycarbonyl)amino)-2-phenylacetyl)-2-pyrrolidinyl)-1H-imidazol-5-yl)phenyl)-5-pyrimidinyl)-1H-imidazol-2-yl)-1-pyrrolidinyl)-2-oxo-1-phenylethyl)carbamate] | 0.001 to 0.999
12 | COC(=O)N[C@@H](C(=O)N1CCC[C@H]1c1ncc(-c2ccc(-c3ccc(-c4cnc([C@@H]5CCCN5C(=O)[C@H](NC(=O)OC)c5ccccc5)[nH]4)cc3C)nc2)[nH]1)c1ccccc1 [Example 138, methyl((1R)-2-((2S)-2-(5-(6-(4-(2-((2S)-1-((2R)-2-((methoxycarbonyl)amino)-2-phenylacetyl)-2-pyrrolidinyl)-1H-imidazol-5-yl)-2-methylphenyl)-3-pyridinyl)-1H-imidazol-2-yl)-1-pyrrolidinyl)-2-oxo-1-phenylethyl)carbamate] | 0.001 to 0.999
13 | COC(=O)N[C@H](C(=O)N1CCC[C@H]1c1ncc(-c2ccc(-c3ccc(-c4cnc([C@@H]5CCCN5C(=O)[C@@H](NC(=O)OC)C(C)C)[nH]4)cc3C(N)=O)cc2)[nH]1)C(C)C [Example M118, methyl((1S)-1-(((2S)-2-(5-(2′-carbamoyl-4′-(2-((2S)-1-((2S)-2-((methoxycarbonyl)amino)-3-methylbutanoyl)-2-pyrrolidinyl)-1H-imidazol-5-yl)-4-biphenylyl)-1H-imidazol-2-yl)-1-pyrrolidinyl)carbonyl)-2-methylpropyl)carbamate] | 1000 to 10000
14 | COC(=O)N[C@@H](C(=O)N1CCC[C@H]1c1ncc(-c2ccc(-c3ccc(-c4cnc([C@@H]5CCCN5C(=O)[C@@H](c5ccccc5)N(C)C)[nH]4)cc3C)cc2)[nH]1)c1ccccc1 [Example 126, methyl ((1R)-2-((2S)-2-(5-(4′-(2-((2S)-1-((2R)-2-(dimethylamino)-2-phenylacetyl)-2-pyrrolidinyl)-1H-imidazol-5-yl)-2′-methyl-4-biphenylyl)-1H-imidazol-2-yl)-1-pyrrolidinyl)-2-oxo-1-phenylethyl)carbamate] | 0.001 to 0.999
15 | COC(=O)N[C@@H](C(=O)N1CCC[C@H]1c1ncc(-c2ccc(-c3ccc(-c4cnc([C@@H]5CCCN5C(=O)[C@H]5CCCO5)[nH]4)cn3)cc2)[nH]1)c1ccccc1 [Example 141, methyl ((1R)-2-oxo-1-phenyl-2-((2S)-2-(5-(4-(5-(2-((2S)-1-((2R)-tetrahydro-2-furanylcarbonyl)-2-pyrrolidinyl)-1H-imidazol-5-yl)-2-pyridinyl)phenyl)-1H-imidazol-2-yl)-1-pyrrolidinyl)ethyl)carbamate] | 0.001 to 0.999
16 | COC(=O)N[C@H](C(=O)N[C@H](c1nc(-c2ccc(-c3ccc(-c4c[nH]c(C5CCCN5C(=O)[C@@H](NC(=O)OC)[C@@H](C)OC)n4)cc3)cc2)c[nH]1)C(C)C)[C@@H](C)OC (stereo partly drawn) [Example R37] | 0.001 to 0.999
17 | COC(=O)NC(C(=O)Nc1ncc(-c2ccc(-c3ccc(-c4cnc([C@@H]5CCCN5C(O)[C@@H](NC(=O)OC)C(C)C)[nH]4)cc3)cc2)[nH]1)C(C)C (stereo partly drawn) [Example R36] | 0.001 to 0.999
18 | COC(=O)N[C@@H](C(=O)N1CCC[C@H]1c1ncc(-c2ccc(-c3ccc(-c4cnc([C@@H]5CCCN5C(=O)Cc5cccnc5)[nH]4)cn3)cc2)[nH]1)c1ccccc1 [Example 143, methyl ((1R)-2-oxo-1-phenyl-2-((2S)-2-(5-(4-(5-(2-((2S)-1-(3-pyridinylacetyl)-2-pyrrolidinyl)-1H-imidazol-5-yl)-2-pyridinyl)phenyl)-1H-imidazol-2-yl)-1-pyrrolidinyl)ethyl)carbamate] | 0.001 to 0.999
19 | C[C@@H](c1ncc(-c2ccc(-c3ccc(-c4cnc([C@H](C)N(C)C(=O)[C@@H](c5ccccc5)N(C)C)[nH]4)cc3)cc2)[nH]1)N(C)C(=O)[C@@H](c1ccccc1)N(C)C [Example 24-18-2, (2R,2′R)-N,N′-(4,4′-biphenyldiylbis (1H-imidazole-5,2-diyl(1S)-1,1-ethanediyl))bis(2-(dimethylamino)-N-methyl-2-phenylacetamide)] | 0.001 to 0.999

same assay, conditions: Table 2, read-out: Range (EC50 against HCV 1b)

Row | Structure (SMILES) | EC50 [nM]
20 | CC(C)[C@H](NC(=O)N(C)C)C(=O)O [OL-2] | 0.001 to 0.999
21 | COC(=O)NC(C(=O)NC(C)c1ncc(-c2ccc(-c3ccc(-c4cnc(C5CCCN5C(=O)C(NC(=O)OC)C(C)C)[nH]4)cc3)cc2)[nH]1)C(C)C (stereo not drawn) [Example R26] | 0.001 to 0.999
